Consider 29 compounds from ChEMBL document CHEMBL4483862, “Open-source discovery of chemical leads for next-generation chemoprotective antimalarials” (2018).

For the experiment, the system named is Plasmodium berghei. Put plainly: Luciferase/luciferin-expressing antifolate-resistant parasites were used to infect a culture of HepG2 cells that were pre-incubated with compounds. Infected hepatocytes emit light due to the luciferase reaction. Assay results are presented as the percent inhibition of light emission compared to control. […]. The format is functional. The following applies: sporozoite; for IC90: read-out: LUCIFERASE INFECTION ASSAY - IC90.

SMILES strings stand for the structures.

Consider `COc1cc(C(=O)c2c(-c3ccccc3)cc3ccccn23)cc(OC)c1OC`, for which the concentration for an effect of 90% (IC90) (as a rule, the concentration needed for an effect of 90%) was 0.409 µM. Besides, the IC50 – broadly, the concentration needed to halve the response being measured – (HEPG2TOX_HILL_SLOPE 0.582, HEPG2TOX_R_SQUARED 0.857, PBLUC_HILL_SLOPE 12.9, PBLUC_R_SQUARED 0.72, read-out: LUCIFERASE INFECTION ASSAY - IC50) turned out to be 0.344 µM.

With `O=C1/C(=C2/NC=C(c3ccc(Cl)cc3)O2)Sc2ccccc21`, the IC90 is above 10 µM. The IC50 (HEPG2TOX_HILL_SLOPE 0.513, HEPG2TOX_R_SQUARED 0.665, PBLUC_HILL_SLOPE 15.6, PBLUC_R_SQUARED 0.39, read-out: LUCIFERASE INFECTION ASSAY - IC50) amounted to 9.58 µM.

As to `CN(CC(=O)Nc1ccc(Cl)c(S(=O)(=O)N2CCOCC2)c1)C(=O)/C=C/c1cccs1`, the IC90 was above 10 µM. The IC50 (HEPG2TOX_HILL_SLOPE 0.594, HEPG2TOX_R_SQUARED 0.62, read-out: LUCIFERASE INFECTION ASSAY - IC50) was above 10 µM.

For `CCOC(=O)c1cnc(SC(C)C(=O)Nc2nc(-c3ccccc3)cs2)nc1N` (stereo not drawn), the IC90 was above 10 µM. Moreover, the IC50 (HEPG2TOX_HILL_SLOPE 0.514, HEPG2TOX_R_SQUARED 0.73, PBLUC_HILL_SLOPE 0.707, PBLUC_R_SQUARED 0.324, read-out: LUCIFERASE INFECTION ASSAY - IC50) is 4.44 µM.

Consider `Cn1ncc2c(NCc3ccc(-c4ccc(Cl)cc4)o3)ncnc21`, for which the concentration for an effect of 90% (IC90) was found to be 0.56 µM. Further, the IC50 (HEPG2TOX_HILL_SLOPE 0.521, HEPG2TOX_R_SQUARED 0.423, PBLUC_HILL_SLOPE 3.64, PBLUC_R_SQUARED 0.888, read-out: LUCIFERASE INFECTION ASSAY - IC50) was determined as 0.306 µM.

Consider `O=C(O)Cc1c(-c2ccc3c(c2)OCCO3)nc2ccc([N+](=O)[O-])cc2c1-c1ccccc1`, for which the IC90 was found to be 8.54 µM. Besides, the IC50 (HEPG2TOX_HILL_SLOPE 0.567, HEPG2TOX_R_SQUARED 0.724, PBLUC_HILL_SLOPE 1.12, 2.95, PBLUC_R_SQUARED 0.872, 0.627, read-out: LUCIFERASE INFECTION ASSAY - IC50) came out at 3.34 µM.

As for `O=C(/C=C/c1ccc([N+](=O)[O-])cc1)NCC(=O)N1CCN(S(=O)(=O)c2ccc(Cl)cc2)CC1`, the IC90 was 0.04 µM. The IC50 (HEPG2TOX_HILL_SLOPE 0.532, HEPG2TOX_R_SQUARED 0.824, PBLUC_HILL_SLOPE 10.3, PBLUC_R_SQUARED 0.421, read-out: LUCIFERASE INFECTION ASSAY - IC50) was 0.0324 µM.

On to `C=C(C)[C@@H]1CC=C(CN2CCC3(CC2)C(=O)N(CCCc2cccnc2)C(=O)N3CC)CC1`, for which the IC90 was found to be 6.89 µM. In addition, under “HEPG2TOX_HILL_SLOPE 0.525, HEPG2TOX_R_SQUARED 0.846, PBLUC_HILL_SLOPE 1.68, PBLUC_R_SQUARED 0.809, read-out: LUCIFERASE INFECTION ASSAY - IC50”, the IC50 was 1.86 µM.

With `COc1ccc(O)c(C(=O)c2cnc3cc4c(cc3c2)OCCO4)c1`, the IC90 was 1.21 µM. For the same compound, the IC50 (HEPG2TOX_HILL_SLOPE 0.562, HEPG2TOX_R_SQUARED 0.791, PBLUC_HILL_SLOPE 0.753, PBLUC_R_SQUARED 0.781, read-out: LUCIFERASE INFECTION ASSAY - IC50) was 0.0655 µM.

As for `CN1c2ccccc2C(C)(C)C12C=Cc1c(c(Br)cc3oc4c(c13)CCCC4)O2` (stereo not drawn), the IC90 was above 10 µM. Moreover, where the note is “HEPG2TOX_HILL_SLOPE 0.555, HEPG2TOX_R_SQUARED 0.409, PBLUC_HILL_SLOPE 0.699, PBLUC_R_SQUARED 0.384, read-out: LUCIFERASE INFECTION ASSAY - IC50”, the IC50 was 4.21 µM.

With `O=C(Nc1cccc2c[nH]nc12)c1ccc([N+](=O)[O-])s1`, the IC90 came out at 7.56 µM. The IC50 (HEPG2TOX_HILL_SLOPE 0.563, HEPG2TOX_R_SQUARED 0.653, PBLUC_HILL_SLOPE 2.36, PBLUC_R_SQUARED 0.303, read-out: LUCIFERASE INFECTION ASSAY - IC50) was determined as 2.98 µM.

`CCn1nnc2cc(C(=O)NC3CCc4nc(-c5ccccc5)ncc4C3)ccc21` (stereo not drawn): the IC90 is above 10 µM. The IC50 (HEPG2TOX_HILL_SLOPE 0.553, HEPG2TOX_R_SQUARED 0.534, PBLUC_HILL_SLOPE 1.69, PBLUC_R_SQUARED 0.311, read-out: LUCIFERASE INFECTION ASSAY - IC50) worked out at 4.68 µM.

Take `COc1ccc(-c2ccc3ncc(-c4cccc(C(=O)NCCN(C)C)c4)n3n2)cc1OC`: the IC90 stood at 0.309 µM. The IC50 (HEPG2TOX_HILL_SLOPE 0.532, HEPG2TOX_R_SQUARED 0.94, PBLUC_HILL_SLOPE 3.74, PBLUC_R_SQUARED 0.793, read-out: LUCIFERASE INFECTION ASSAY - IC50) is 0.172 µM.

In the case of `CC(C)c1ccc(NC(=O)c2csc(C(O)c3ccccc3)n2)cc1` (stereo not drawn), the IC90 was above 10 µM. For the setting “HEPG2TOX_HILL_SLOPE 0.582, HEPG2TOX_R_SQUARED 0.837, PBLUC_HILL_SLOPE 1.67, PBLUC_R_SQUARED 0.415, read-out: LUCIFERASE INFECTION ASSAY - IC50”, the IC50 was determined as 7.47 µM.

On to `C(=N\c1ccc2ccccc2c1)/Nc1ccc2ccccc2c1`, for which the IC90 is above 11.1 µM. In addition, the IC50 (HEPG2TOX_HILL_SLOPE 0.512, HEPG2TOX_R_SQUARED 0.0455, PBLUC_HILL_SLOPE 17.2, PBLUC_R_SQUARED 0.33, read-out: LUCIFERASE INFECTION ASSAY - IC50) was 10.8 µM.

Take `CO/N=C1\CCCc2c(C(=O)N/N=C/c3ccc(Cl)cc3)sc(SC)c21`: the IC90 is 1.51 µM. For the setting “HEPG2TOX_HILL_SLOPE 0.585, HEPG2TOX_R_SQUARED 0.788, PBLUC_HILL_SLOPE 2.34, PBLUC_R_SQUARED 0.687, read-out: LUCIFERASE INFECTION ASSAY - IC50”, the IC50 came to 0.59 µM.

For `CC(C)(C)c1cnc(CSc2nc3ccc(Cl)cc3[nH]2)o1`, the IC90 is above 10 µM. Moreover, the IC50 (HEPG2TOX_HILL_SLOPE 0.519, HEPG2TOX_R_SQUARED 0.541, PBLUC_HILL_SLOPE 2.57, PBLUC_R_SQUARED 0.344, read-out: LUCIFERASE INFECTION ASSAY - IC50) was found to be 5.12 µM.

On to `Cc1ccc(S(=O)(=O)Nc2ccccc2-c2nnc(-c3ccc(C(C)(C)C)cc3)o2)cc1`, for which the IC90 was above 7.37 µM. For the setting “HEPG2TOX_HILL_SLOPE 0.544, HEPG2TOX_R_SQUARED 0.0439, read-out: LUCIFERASE INFECTION ASSAY - IC50”, the IC50 was above 7.37 µM.

Regarding `Cc1cccc(-c2cn3c(-c4ccc(N(C)C)cc4)cnc3cn2)c1C`, the IC90 is 1.28 µM. Also, the IC50 (HEPG2TOX_HILL_SLOPE 0.565, HEPG2TOX_R_SQUARED 0.75, PBLUC_HILL_SLOPE 0.899, PBLUC_R_SQUARED 0.883, read-out: LUCIFERASE INFECTION ASSAY - IC50) was found to be 0.111 µM.

Turning to `CC1(C)CC(=O)C/C(=N\Nc2nc(C(Cl)(Cl)Cl)nc3ccccc23)C1`, the IC90 was above 10 µM. Moreover, the IC50 (HEPG2TOX_HILL_SLOPE 0.517, HEPG2TOX_R_SQUARED 0.271, PBLUC_HILL_SLOPE 3.75, PBLUC_R_SQUARED 0.163, read-out: LUCIFERASE INFECTION ASSAY - IC50) was determined as 9.3 µM.

As for `Oc1ccc(C2=CCN(c3ncnc4ccccc34)CC2)cc1`, the IC90 stood at 2.89 µM. Moreover, the IC50 (HEPG2TOX_HILL_SLOPE 0.526, HEPG2TOX_R_SQUARED 0.691, PBLUC_HILL_SLOPE 1.57, PBLUC_R_SQUARED 0.66, read-out: LUCIFERASE INFECTION ASSAY - IC50) is 0.716 µM.

For `COc1cc(NC(=O)COC(=O)c2c3c(nc4ccccc24)CCC(C(C)(C)C)C3)c(C)cc1[N+](=O)[O-]` (stereo not drawn), the IC90 is above 10 µM. Where the note is “HEPG2TOX_HILL_SLOPE 0.52, HEPG2TOX_R_SQUARED 0.623, PBLUC_HILL_SLOPE 14.9, PBLUC_R_SQUARED 0.282, read-out: LUCIFERASE INFECTION ASSAY - IC50”, the IC50 was above 10 µM.

As for `CN(CC(=O)Nc1ccccc1N1CCCC1)Cc1ccc2ccccc2c1`, the IC90 stood at 0.646 µM. For the same compound, for the setting “HEPG2TOX_HILL_SLOPE 0.547, HEPG2TOX_R_SQUARED 0.872, PBLUC_HILL_SLOPE 2.05, PBLUC_R_SQUARED 0.897, read-out: LUCIFERASE INFECTION ASSAY - IC50”, the IC50 is 0.221 µM.

Turning to `COc1ccc(COC(=O)c2cc(C)nc3ccccc23)cc1F`, the IC90 was determined as 0.157 µM. In addition, the IC50 (HEPG2TOX_HILL_SLOPE 0.536, HEPG2TOX_R_SQUARED 0.687, PBLUC_HILL_SLOPE 9.99, PBLUC_R_SQUARED 0.341, read-out: LUCIFERASE INFECTION ASSAY - IC50) was 0.126 µM.

As for `O=C1C2=C(Nc3[nH]c(=O)[nH]c(=O)c3C2c2cccs2)c2ccccc21` (stereo not drawn), the IC90 was above 10 µM. The IC50 (HEPG2TOX_HILL_SLOPE 0.543, HEPG2TOX_R_SQUARED 0.515, read-out: LUCIFERASE INFECTION ASSAY - IC50) was above 10 µM.

Turning to `CCCn1c(C)cc(C(=O)CN(C)S(=O)(=O)c2ccc(F)cc2)c1C`, the IC90 was above 10 µM. Moreover, for the setting “HEPG2TOX_HILL_SLOPE 0.529, HEPG2TOX_R_SQUARED 0.126, read-out: LUCIFERASE INFECTION ASSAY - IC50”, the IC50 was above 10 µM.

With `Cc1cc(C)n(-c2nc(-c3ccccc3)cc(N(C)CCO)n2)n1`, the IC90 was determined as 3.45 µM. Where the note is “HEPG2TOX_HILL_SLOPE 0.522, HEPG2TOX_R_SQUARED 0.395, PBLUC_HILL_SLOPE 14.2, PBLUC_R_SQUARED 0.716, read-out: LUCIFERASE INFECTION ASSAY - IC50”, the IC50 was found to be 2.96 µM.

For the compound `CC(=O)Nc1ccc(NC(=O)c2cc(C)n(C3CCCCC3)c2C)cc1`, the IC90 is above 10 µM. In addition, the half-inhibitory concentration (IC50) (HEPG2TOX_HILL_SLOPE 0.564, HEPG2TOX_R_SQUARED 0.119, read-out: LUCIFERASE INFECTION ASSAY - IC50) is above 10 µM.

For the compound `FC(F)(F)c1nc(NCCNc2ccccn2)c2ccccc2n1`, the IC90 came to 5.48 µM. For the same compound, the IC50 (HEPG2TOX_HILL_SLOPE 0.531, HEPG2TOX_R_SQUARED 0.801, PBLUC_HILL_SLOPE 0.677, PBLUC_R_SQUARED 0.347, read-out: LUCIFERASE INFECTION ASSAY - IC50) was determined as 0.214 µM.
